This is an account of results in US20260165936A1, “BIO-BASED SURFACTANT COMPOSITION FOR REDUCTION OF MULTISPECIES BIOFILM FORMATION IN ORAL CAVITY” (SKYLAB AG, priority 2023, published 2026).

The subject of assay [1] is dental plaque. The note with it: second-generation anti-plaque agent; cited from earlier work.
Assay [2] concerns dental plaque (biofilm) grown from fresh human saliva. Description: Inhibition of biofilm formation on rough glass rods (biofilm dry weight). The settings on record: for Average biofilm weight: biofilm grown 3 days on rough glass rods in human saliva, dry weight; for Biofilm inhibitory effect of the individual component alone compared to the control (in words): individual component without its partner, FIG. 2. In kind it is cell-based. On the procedure: The aqueous solutions of sodium lauroyl sarcosinate, biosurfactant rhamnolipid and the mixture thereof at various concentrations were tested for inhibition of biofilm formation on the surface of rough glass rods. The test sample of the raw material contained sodium lauroyl sarcosinate at the level of 35%. The test sample of the raw material contained rhamnolipid at the level of 40%. Sterile water was used as a negative control, and the mouthwash Corsodyl, containing 0.2% chlorhexidine was used as a positive control. Dry biofilm mass was weighted to determine the amount of formed dental plaque. The dental plaque was grown for 3 days by immersion of rough glass rods into the fresh human saliva containing 0.1% saccharose. […] On Day 1 one treatment of the glass rods with the test component solutions, and on Days 2 and 3 two treatments of the glass rods with the test component solutions were made. At the end of Day 3 the biofilm was collected from the glass rods, and the plaque amount by dry weight (g) was determined. Lesser weight indicated higher efficacy against the dental plaque. Sterilized rods were fixed in the holders in the microbiological cabinet. Since that moment the rods and the holders were used as the integral units. On Day 1 the sterile glass rods were pre-treated for 2 minutes with the test component solutions taken in the amount of 5 mL. Then the glass rods were removed, washed in 5 mL of the sterile distilled water and immersed into 5 mL of saliva containing 0.1% saccharose. The tubes were placed into the rack and then into the incubator (t=37° C.) and on shaker (250 rpm) for about 18 hours. On Days 2 and 3 in the morning the rods were treated with the test component solutions, then placed into nutritive broth and returned into the incubator and on shaker. After 6 h incubation in the broth the rods were treated with the test component solution once again and transferred into the saliva with 0.1% glucose, and then returned into the incubator for 18 hours. On Day 4 the tubes with the rods were removed from the incubator and used for determination of the biofilm dry weight. For this purpose, the rods were dried and then weighted on analytical balance with the accuracy of 4 decimal places. The biofilm was removed after the rehydration, and the rods were weighted once again. The biofilm dry weight was determined from the equation: [formula]

On to `[H]/N=C(\N/C(=N/[H])NCCCCCCNC(=N)NC(=N)Nc1ccc(Cl)cc1)Nc1ccc(Cl)cc1` [chlorohexidine], for which the “Removal of dental plaque” value in assay [1] is listed as 70-90%.
rhamnolipid [Biosurfactant rhamnolipid]: in assay [2] (aqueous solution 0.01%), the “Average biofilm weight” value is given as 0.0026 g. Further, the “Biofilm inhibitory effect of the individual component alone compared to the control (in words)” value in assay [2] is listed as “do not provide for any biofilm inhibitory effect compared to the control”.
Regarding sodium lauroyl sarcosinate, the “Dose dependence of dental plaque weight (in words)” value in assay [2] (0.2 and 2% aqueous solutions, 10-fold increase in concentration) is on record as “absence of obvious dose-dependent effect”. Also, the “Average biofilm weight” value came out at 0.0022 g in assay [2] (aqueous solution 0.2%) and 0.0020 g in assay [2] (aqueous solution 2%). Also, in assay [2], the “Biofilm inhibitory effect of the individual component alone compared to the control (in words)” value is listed as “do not provide for any biofilm inhibitory effect compared to the control”.
